Among the data in patent US20260193236A1 (Protego Biopharma, Inc., priority 2022, published 2026) are activation values, retold here.

In this test the test system is IRE1-XBP1s (XBP1-RLuc splicing reporter in HEK293 T-REx cells). As to the kind of experiment: IRE1-XBP1s activation assay (XBP1-RLuc splicing reporter, HEK293 T-REx cells, luminescence relative to thapsigargin). Format: cell-based. Conditions: 18 h, compound 10 μM, HEK293 T-REx XBP1-RLuc reporter cells, relative to thapsigargin (Tg) 500 nM, read-out: Activity (IRE1-XBP1s activation, luminescence as % signal relative to thapsigargin, % Tg). The method, then: IRE1-XBP1s activation Assay: HEK293 T-REx cells stably expressing the XBP1-RLuc splicing reporter were treated with an IRE1-XBP1s activator provided herein (10 μM) in the presence or absence of the IRE1 active site inhibitor 4μ8C (32 μM) for 18 h. Luminescence was shown as the percentage signal relative to thapsigargin (Tg) (500 nM, 18 h).
With `Cc1ccc(OCCN(C)C(=O)Cn2cc(NC(=O)CCNc3nccc(F)n3)cn2)cc1` [Compound 139], the activation at 10 µM was less than 30%.
As to `COc1ncc(Cl)cc1NCCC(=O)Nc1cnn(CC(=O)N(C)CCOc2ccc(C)cc2)c1` [Compound 183], the activation at 10 µM is less than 30%.
Take `Cc1ccc(OCCN(C)C(=O)Cn2cc(NC(=O)CCNc3cc(C)nc(C)c3)cn2)cc1` [Compound 123, 3-((2,6-dimethylpyridin-4-yl)amino)-N-(1-(2-(methyl(2-(p-tolyloxy)ethyl)amino)-2-oxoethyl)-1H-pyrazol-4-yl)propanamide]: the activation at 10 µM is 30 to 50%.
The value for `Cc1ccc(OCCN(C)C(=O)Cn2cc(NC(=O)CCNc3ccnc(N)n3)cn2)cc1` [Compound 158] was less than 30%.
Regarding `Cc1ccc(OCCC(=O)Nc2cnn(CC(=O)N(C)CCOc3ccc(F)c(OC(F)(F)F)c3)c2)c(F)c1` [Compound 78], the activation at 10 µM is less than 30%.
Consider `Cc1ccc(OCCN(C)C(=O)Cn2cc(NC(=O)CCOc3ccncc3)cn2)cc1` [Compound 9], for which the activation at 10 µM is greater than 50%.
As to `Cc1ccc(OCCN(C)C(=O)Cn2cc(NC(=O)CCNc3cccc(C)n3)cn2)cc1` [Compound 160], the activation at 10 µM lay within 30 to 50%.
With `Cc1ccc(OCCN(C)C(=O)Cn2cc(NC(=O)CCNc3ccncc3F)cn2)cc1` [Compound 192], the activation at 10 µM was greater than 50%.
With `COc1cc(OCCN(C)C(=O)Cn2cc(NC(=O)CCNc3ncccn3)cn2)ccc1C` [Compound 283], the activation at 10 µM was less than 30%.
For `Cc1ccc(OCCN(C)C(=O)Cn2cc(NC(=O)CCN(C)c3ccccc3)cn2)cc1` [Compound 21], the activation at 10 µM is less than 30%.
The value for `COc1cccc(OCCC(=O)Nc2cnn(CC(=O)N(C)CCOc3ccc(C)cc3)c2)c1` [Compound 36] was greater than 50%; that for `Cc1ccc(OCCN(C)C(=O)Cn2cc(NC(=O)CCNc3c(Cl)cncc3Cl)cn2)cc1` [Compound 152] was greater than 50%; that for `Cc1ccc(OCCN(C)C(=O)Cn2cc(NC(=O)CCNc3c(F)cncc3Cl)cn2)cc1` [Compound 150] was 30 to 50%.
The same measure for `CN(CCOc1ccc(C#N)cc1)C(=O)Cn1cc(NC(=O)CCOc2ccccc2)cn1` [Compound 25]: less than 30%; for `CN(CCOc1ccc(C(F)(F)F)cn1)C(=O)Cn1cc(NC(=O)CCOc2ccnc(N)c2)cn1` [Compound 95]: less than 30%.
`Cc1ccc(OCCN(C)C(=O)Cn2cc(NC(=O)CCNc3ccnc(O)n3)cn2)cc1` [Compound 260, 3-((2-hydroxypyrimidin-4-yl)amino)-N-(1-(2-(methyl(2-(p-tolyloxy)ethyl)amino)-2-oxoethyl)-1H-pyrazol-4-yl)propanamide]: the activation at 10 µM is less than 30%.
Consider `CN(CCOc1cc(C(F)F)on1)C(=O)Cn1cc(NC(=O)CCNc2nccc(F)n2)cn1` [Compound 271], for which the activation at 10 µM is less than 30%.
Regarding `Cc1ccc(OCCN(C)C(=O)Cn2cc(NC(=O)CCNc3ncccc3F)cn2)cc1` [Compound 146], the activation at 10 µM is 30 to 50%.
Regarding `Cc1ccc(OCCN(C)C(=O)Cn2cc(NC(=O)CCOc3cccc(Br)n3)cn2)cc1` [Compound 100], the activation at 10 µM was greater than 50%.
With `Cc1ccc(OCCN(C)C(=O)Cn2cc(NC(=O)CCNc3ccncc3)cn2)cc1` [Compound 155], the activation at 10 µM is less than 30%.
The value for `Cc1ccc(OCCN(C)C(=O)Cn2cc(NC(=O)CCNc3ccnc(C(F)(F)F)c3)cn2)cc1` [Compound 128] was less than 30%.
Take `CCOc1cc(NCCC(=O)Nc2cnn(CC(=O)N(C)CCOc3ccc(C)cc3)c2)ccn1` [Compound 191]: the activation at 10 µM was less than 30%.
Turning to `CCc1nccnc1NCCC(=O)Nc1cnn(CC(=O)N(C)CCOc2ccc(C)cc2)c1` [Compound 142], the activation at 10 µM lay in the range of 30 to 50%.
As for `Cc1ccc(OCCN(C)C(=O)Cn2cc(NC(=O)CCNc3cncc(C)c3)cn2)cc1` [Compound 180], the activation at 10 µM lay within 30 to 50%.
The same measure for `C=C(C)c1cncc(F)c1NCCC(=O)Nc1cnn(CC(=O)N(C)CCOc2ccc(C)cc2)c1` [Compound 254]: greater than 50%.
